Source: article PMC3693772, “Protein expression, biochemical pharmacology of signal transduction, and relation to intraocular pressure modulation by bradykinin B2 receptors in ciliary muscle” (Molecular Vision, 2013)
“Also recorded” adds a separate entry of the source. Read-outs that look alike come from different tables or passages of the source.

Legend:
[1] = system: primary h-TM cells; format: cell-based, human; conditions: preliminary data, values rounded-off, read-out: Agonist potency at stimulating [Ca^2+]i mobilization in primary h-TM cells (EC50)
[2] = system: h-CM cells; format: cell-based, human; conditions: 1 h at 37 °C; enzyme immunoassay; mean ± SEM, 3 to 6 experiments; read-out: PGE2 production in h-CM cells (EC50)
[3] = system: CHO-B2 cells; format: cell-based, Chinese hamster ovary cells, human cloned B2 receptor; conditions: 1 h at 37 °C; enzyme immunoassay; mean ± SEM, 3 to 6 experiments; read-out: PGE2 production in CHO-B2 cells (EC50)
[4] = system: CHO-B2 cells; format: cell-based, Chinese hamster ovary cells, human cloned B2 receptor; conditions: 1 h at 37 °C; enzyme immunoassay; mean ± SEM, 3 to 6 experiments; read-out: PGF2α production in CHO-B2 cells (EC50)
[5] = system: CHO-B2 cells; conditions: read-out: PGD2 production in CHO-B2 cells (EC50), 1 h at 37 °C, enzyme immunoassay
Protocol: Measurement of prostaglandins in human ciliary muscle and Chinese hamster ovary cells expressing B2 receptors
This involved stimulating h-CM cells and CHO-B2 cells with various concentrations of test peptides and measuring the release of various PGs in the extracellular medium. The concentration-dependent effects of these peptides on total PGs, and specifically PGE2, PGF2α, and PGD2 release, were studied. Cells were grown as a monolayer in a 24-well plate (precoated with fibronectin) to confluence and subsequently serum-starved overnight before the experiment. On the day of the experiment, just before the drug was added, the wells were aspirated completely, and 990 µl basal medium and 10 µl 100× series of concentrations of the different peptide agonists were added to achieve the desired final concentrations of each compound (e.g., 0.1 nM to 10 µM). […] At the end of the incubation period, the cellular supernatants were collected and stored at −80 °C or used immediately to determine the PG content. Cell supernatants were tested for total PG levels and sub-species of PGs (PGE2, PGF2α, and PGD2) using specific competitive enzyme immunoassays (Cayman Chemical Co., Ann Arbor, MI) as directed in the manufacturer’s recommended protocols using the supplied standards and reagents. The limits of detection for various PGs were as follows: total PGs=29 pg/ml; PGE2=15 pg/ml; PGF2α=9 pg/ml; PGD2=200 pg/ml.

[6] = system: pro-MMPs, h-CM cells; experiment: pro-MMP release from h-CM cells (several pro-MMPs stated together); format: cell-based, human; conditions: BK 0.1–1 µM at 24 h
Protocol: Measurement of extracellular signal-regulated kinase-1/2 phosphorylation and pro-matrix metalloproteinase production
The release of pro-MMP-1/2/3 in the extracellular medium of h-CM cells exposed to kinin’s, for 24 h at 37 °C [29, 30] was studied next. Thus, h-CM cells isolated from multiple human donor eyes were cultured as described above and then serum-starved for 24 h prior to the addition of any test compound. Cells were incubated with the vehicle or test compound for 24 hours at 37 °C after which the medium was collected and concentrated ten-fold using Centricon concentrators (Millipore Corp., Bellireca, MA). Equal volumes of this concentrate were loaded on 10% SDS-polyacrylamide gels (SDS-PAGE) and the proteins separated and transferred to nitrocellulose membranes. The membranes were then blocked with 5% non-fat dry milk (Bio-Rad Laboratories, Hercules, CA) followed by incubation with antibodies to pro-MMP-1, pro-MMP-2, or pro-MMP-3 for 12 hours at 4 °C with gentle shaking. After washing, these membranes were incubated with appropriate secondary antibodies (HRP-conjugated; dilution 1:3000) for 1 hour at 20 °C. […] For chemiluminescent detection, the membranes were treated with enhanced chemiluminescent reagent (Amersham Pharmacia, Piscataway, NJ) and the signal was quantified using a Bio-Rad Versadoc imaging system (Bio-Rad Laboratories, Hercules, CA).

[7] = system: cynomolgus monkey eyes; experiment: IOP after topical ocular dosing in cynomolgus monkeys; format: in vivo; conditions: for IOP change (% of control) / IOP: 100 µg topical
Protocol: (§1) Intraocular pressure measurements
(§2) To extend our in vitro observations of the high density of B2-receptor protein in human and cynomolgus monkey ciliary muscle and non-pigmented ciliary epithelium, we studied the effects of topically administered BK (100 µg total dose in a sterile vehicle) on IOP in normotensive and TM-ablated hypertensive eyes of these animals. […] However, since we could not subject the monkeys to additional studies involving BK delivery to the eye interior, it was decided that intravitreal (ivt) injection of BK into pigmented Dutch-Belt rabbits would be worth pursuing. Thus, after light corneal anesthesia with 0.1% proparacaine, basal IOPs were determined in up to 10 Dutch-Belt rabbits using an Alcon Pneumotonometer (Alcon Laboratories Inc., Fort Worth, TX). After this time, 50 µg of BK (B2 agonist) or Des-Arg^9-BK (B1 agonist) in 20 µl of sterile basal salt solution (BSS plus), or just BSS plus vehicle, was injected ivt into one eye of each rabbit and the IOP determined at various times thereafter. Authors confirm adherence to the ARVO Statement for Animals in Ophthalmic and Vision Research, with all animal studies conducted according the guidelines for Animal Care and Use at Alcon Research Ltd.

[8] = system: rabbit eyes; experiment: IOP after intravitreal injection in Dutch-Belt rabbits; format: in vivo, pigmented Dutch-Belt rabbit; conditions: for IOP reduction, rabbit: 50 µg intravitreal, n=7–10
Protocol: as §1, §2
Figure 8 Time-course of changes in rabbit intraocular pressure (IOP) with different kinin peptide agonists. Three groups of Dutch-Belt rabbits (n=7–10/group) were injected ivt in one eye with either vehicle or 50 µg of BK or 50 µg of Des-Arg^9-BK dissolved in the vehicle and the IOP monitored over time. Data are mean±SEM.

[9] = system: B1 subtype; set-up: method as in PMID 1313585; conditions: ref [1]; cited from earlier work
[10] = system: h-TM cells; conditions: ref [23]; cited from earlier work
[11] = normal pressure eyes, 1 h, mean ± SEM, twelve monkeys
[12] = normal pressure eyes, 3 h, mean ± SEM, twelve monkeys
[13] = normal pressure eyes, 6 h, mean ± SEM, twelve monkeys
[14] = normal pressure eyes, 24 h, mean ± SEM, twelve monkeys
[15] = ocular hypertensive eyes, 1 h, mean ± SEM, twelve monkeys
[16] = ocular hypertensive eyes, 3 h, mean ± SEM, twelve monkeys
[17] = ocular hypertensive eyes, 6 h, mean ± SEM, twelve monkeys
[18] = ocular hypertensive eyes, 24 h, mean ± SEM, twelve monkeys

Substance: H-RPPGFSPFR-OH [BK]
- EC50 [1]: 1 nM
- EC50 [2]: 8.9 ± 0.2 nM
- EC50 [3]: 0.0328 ± 0.00903 nM
- EC50 [4]: 0.0321 ± 0.0122 nM
- EC50 ([5]; first of two values in cell): 0.0113 nM
- EC50 ([5]; second of two values in cell): 0.181 nM
- Increase in promatrix metalloproteinases-1–3 release [6]: 1.4–3.1 fold
- IOP effect of topical BK ([7]; 100 µg topical ocular, conscious cynomolgus monkeys, normotensive and hypertensive eyes): failed to alter IOP; also recorded: no remarkable changes in IOP; also recorded: no alteration in IOP; also recorded: failed to modulate IOP
- IOP change (% of control) ([7]; normal pressure eyes, 0 h (baseline)): 0%
- IOP ([7]; normal pressure eyes, 0 h (baseline), mean ± SEM, twelve monkeys): 27.1±1.0 mmHg
- IOP [7, 11]: 27.1±1.1 mmHg
- IOP change (% of control) [7, 11]: 0.2±2.5%
- IOP [7, 12]: 26.6±0.7 mmHg
- IOP change (% of control) [7, 12]: −1.0±2.9%
- IOP [7, 13]: 27.2±1.1 mmHg
- IOP change (% of control) [7, 13]: 0.8±2.3%
- IOP [7, 14]: 27.8±1.4 mmHg
- IOP change (% of control) [7, 14]: 2.4±3.3%
- IOP change (% of control) ([7]; ocular hypertensive eyes, 0 h (baseline)): 0%
- IOP ([7]; ocular hypertensive eyes, 0 h (baseline), mean ± SEM, twelve monkeys): 36.8±1.6 mmHg
- IOP [7, 15]: 35.9±1.8 mmHg
- IOP change (% of control) [7, 15]: −2.6±1.5%
- IOP [7, 16]: 35.7±1.6 mmHg
- IOP change (% of control) [7, 16]: −2.7±3.3%
- IOP [7, 17]: 36.6±1.7 mmHg
- IOP change (% of control) [7, 17]: −0.4±3.0%
- IOP [7, 18]: 35.3±1.6 mmHg
- IOP change (% of control) [7, 18]: −4.1±2.3%
- IOP reduction, rabbit ([8]; 5 h post-injection): 22.9±7.3%
- IOP reduction, rabbit ([8]; 8 h post-injection (maximal)): 37.0±5.6%
- Effect on rabbit IOP ([8]; BK 50 µg intravitreal, 5–8 h post injection): time-dependent reduction in IOP; also recorded: robust lowering of the IOP
- Affinity for B1 subtype [9]: low affinity
- ERK1/2 phosphorylation in h-TM cells [10]: stimulate ERK1/2 phosphorylation
